The source of these data is publication PMC4290723 (British Journal of Pharmacology, 2014).

Like-named read-outs stand apart in the source and are kept apart here.

The experiment deals with T1, RoDH4 (also named RDH16) (Homo sapiens, UniProt O75452).
T1 sequence (O75452 1-317): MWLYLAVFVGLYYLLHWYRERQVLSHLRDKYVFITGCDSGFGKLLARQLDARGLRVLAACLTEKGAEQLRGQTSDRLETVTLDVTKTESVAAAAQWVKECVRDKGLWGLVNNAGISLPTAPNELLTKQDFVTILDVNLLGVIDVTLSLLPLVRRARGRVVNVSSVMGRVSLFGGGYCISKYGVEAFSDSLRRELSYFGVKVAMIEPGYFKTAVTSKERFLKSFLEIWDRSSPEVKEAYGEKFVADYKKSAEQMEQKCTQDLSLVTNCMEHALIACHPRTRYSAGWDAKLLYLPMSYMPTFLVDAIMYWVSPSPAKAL
The experiment is described as follows: single-concentration ([…]) inhibition of allopregnanolone oxidation by membranes of RoDH4-transfected HEK293 cells. It counts as cell-based.

With `CN(C)CCCN1c2ccccc2CCc2ccccc21` [imipramine], the remaining activity at 240 µM (HEK293, read-out: % control at 240 μM) stood at 25.45 ± 0.04%.

In the case of `NCCC(Oc1ccc(C(F)(F)F)cc1)c1ccccc1` (centres unmarked) [norfluoxetine], where the note is “HEK293; read-out: % control at 240 μM”, the remaining activity at 240 µM turned out to be 37.8 ± 0.95%.
